# Results published in ChEMBL document CHEMBL1201862, “PubChem BioAssay data set” (2004).
#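 Method: 48-hour compound exposure of cells in 96-well plates, five concentrations, linear interpolation of endpoints. At the GI50, growth is halved.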 Calls of active or inactive are those of the source. Rule as the data show it: active = GI50 up to about 1.1 µM and inactive = higher.
# Experiments:
# Test in all cases: inhibition of tumour cell growth, NCI panel, 48 h
# NCI-H522 = tested on: NCI-H522
# Malme-3M = tested on: Malme-3M
# SF-268 = tested on: SF-268
# A549 = tested on: A549
# OVCAR-3 = tested on: OVCAR-3
# UACC-257 = tested on: UACC-257
# NCI-H226 = tested on: NCI-H226
# M14 = tested on: M14
# SNB-75 = tested on: SNB-75
# HCT-15 = tested on: HCT-15
# OVCAR-5 = tested on: OVCAR-5
# U-251 = tested on: U-251
# MOLT-4 = tested on: MOLT-4
# ACHN = tested on: ACHN
# OVCAR-8 = tested on: OVCAR-8
# SW-620 = tested on: SW-620
# TK-10 = tested on: TK-10
# K562 = tested on: K562
# SN12C = tested on: SN12C
SMILES,GI50 (NCI-H522),GI50 (Malme-3M),GI50 (SF-268),GI50 (A549),GI50 (OVCAR-3),GI50 (UACC-257),GI50 (NCI-H226),GI50 (M14),GI50 (SNB-75),GI50 (HCT-15),GI50 (OVCAR-5),GI50 (U-251),GI50 (MOLT-4),GI50 (ACHN),GI50 (OVCAR-8),GI50 (SW-620),GI50 (TK-10),GI50 (K562),GI50 (SN12C)
CC(=O)CCCCCCCCCCCC[C@@H]1CC[C@H](C)[C@H](O)N1,> 100 µM (inactive),> 100 µM (inactive),> 100 µM (inactive),> 100 µM (inactive),> 100 µM (inactive),> 100 µM (inactive),> 100 µM (inactive),53.5 µM (inactive),89.1 µM (inactive),> 100 µM,> 100 µM (inactive),> 100 µM (inactive),> 100 µM (inactive),> 100 µM (inactive),> 100 µM (inactive),> 100 µM (inactive),> 100 µM (inactive),> 100 µM (inactive),
CCN(CC)CCn1c(C(C)(C)C)nc2ccccc21,38.6 µM (inactive),> 100 µM (inactive),> 100 µM (inactive),> 100 µM (inactive),> 100 µM (inactive),> 100 µM (inactive),> 100 µM (inactive),> 100 µM (inactive),> 100 µM (inactive),> 100 µM,> 100 µM (inactive),30.7 µM (inactive),> 100 µM (inactive),> 100 µM (inactive),> 100 µM (inactive),> 100 µM (inactive),> 100 µM (inactive),> 100 µM (inactive),> 100 µM (inactive)
COc1cc(/C=C(\OC(C)=O)c2ccc3c(c2)OCO3)cc(OC)c1OC,13.5 µM (inactive),23 µM (inactive),20 µM (inactive),26.7 µM (inactive),18.3 µM (inactive),18.4 µM (inactive),11.5 µM (inactive),16.3 µM (inactive),20.6 µM (inactive),16 µM,24.5 µM (inactive),18.5 µM (inactive),13.3 µM (inactive),17.9 µM (inactive),16.3 µM (inactive),28.5 µM (inactive),26.6 µM (inactive),25.5 µM (inactive),20.2 µM (inactive)
CCN(CCCl)CCNc1c2ccccc2nc2ccc(OC)cc12,0.33 µM (active),0.861 µM (active),0.454 µM (active),0.557 µM (active),1.38 µM (inactive),1.52 µM (inactive),0.6 µM (active),1.18 µM (inactive),0.966 µM (active),0.731 µM,1.36 µM (inactive),0.906 µM (active),0.0426 µM (active),0.127 µM (active),0.263 µM (active),0.132 µM (active),1.58 µM (inactive),0.213 µM (active),0.548 µM (active)
CC12C(=O)CC(CC1=O)C2(C)C,> 100 µM (inactive),> 100 µM (inactive),> 100 µM (inactive),> 100 µM (inactive),> 100 µM (inactive),> 100 µM (inactive),> 100 µM (inactive),> 100 µM (inactive),> 100 µM (inactive),> 100 µM,> 100 µM (inactive),,> 100 µM (inactive),> 100 µM (inactive),> 100 µM (inactive),> 100 µM (inactive),> 100 µM (inactive),> 100 µM (inactive),> 100 µM (inactive)
O=C(c1cc2ccccc2o1)N(Cc1ccccc1)c1ccccc1,16.4 µM (inactive),23.7 µM (inactive),41.4 µM (inactive),32.6 µM (inactive),20.3 µM (inactive),20.3 µM (inactive),15.6 µM (inactive),18.6 µM (inactive),28.3 µM (inactive),18 µM,30.3 µM (inactive),,16.6 µM (inactive),26.6 µM (inactive),22.9 µM (inactive),15.8 µM (inactive),33.6 µM (inactive),15 µM (inactive),18 µM (inactive)
